Data on four compounds can be found in patent publication US4570005A, “Process for the preparation of 2-arylpropyl ether or thioether derivatives” (priority 1980, dated 1986).

Data set [1] concerns male mice. The experiment in a line: Test 9: Toxicity Test (acute oral toxicity, mice). The note with it: oral; corn oil; male mice; 7 days. As to the method:
(§1) A predetermined amount of a solution or suspension of a test compound in corn oil was orally administered to male mice having a body weight of 19 to 23 g (0.2 ml per 10 g of the body weight). After 7 days, the number of killed mice was counted and the influences on the mice were examined.

Data set [2] has as its system two-spotted spider mite. Kind of data set: Test 6: Effect on Two-Spotted Spider mite Adults. The class given is in vivo. The note with it: 100 ppm, adults, 24 hours, 25° C; for mortality at 100 ppm: Tetranychus urticae, read-out: Mortality (%).
Data set [3] is described as follows: Test 9: Toxicity Test (acute oral toxicity, mice). The note with it: mouse, in vivo, po. As to the method: as §1
In data set [4] the test system is tobacco cutworm. Kind of data set: Test 1: Effect on Tobacco Cutworm (leaf immersion), mortality after 24 hours. The class given is in vivo. The note with it: second-instar larvae, 25° C. The method in brief: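 Second-instar tobacco cutworm larvae were kept at 25 °C on air-dried sweet-potato leaves that had been immersed for 10 s in test dilutions of 100 or 20 ppm from an emulsifiable concentrate. Mortality was scored at 24 h as the mean of three cups.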

For data set [5], the system named is green peach aphid. Kind of data set: Test 5: Effect on Green Peach Aphid. The note with it: Myzus persicae; 100 ppm; mortality class; 24 hours; read-out: Insecticidal Activity. It counts as in vivo. The method in brief:
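Eggplant seedlings with 3–4 leaves were infested with aphids and sprayed with a 100 ppm aqueous dilution of an emulsifiable concentrate, then kept in a glasshouse. Living insects were counted after 24 h. Mortality is averaged over three pots and graded A (>95%), B (80–95%), C (50–80%) or D (<50%).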

In data set [6] the test system is sensitive green rice leafhopper (collected at Chigasaki). Kind of data set: whole plant or invertebrate. The note with it: Nephotettix cincticeps, sensitive female adults, 24 hours, read-out: Mortality (%), Green Rice Leafhopper Collected at Chigasaki. It counts as in vivo. The method in brief:
(§2)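 Ten adult females per pot, either resistant (Nakagawara) or sensitive (Chigasaki), were caged on air-dried rice seedlings (2–3 leaves) sprayed at 3 ml/pot with 100 or 20 ppm of an emulsifiable concentrate dilution. Dead and living insects were counted after 24 hours; mortality is the mean of three pots.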

Data set [7] deals with diamond back moth. The experiment in a line: Test 4: Effect on Diamond Back Moth. The class given is in vivo. As to conditions: Plutella, third-instar larvae, 24 hours, read-out: Mortality (%). The method in brief: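 Compound formulated as an emulsifiable concentrate, diluted in water to 100 or 20 ppm and sprayed at 3 ml per cup onto cabbage leaves holding 10 third-instar larvae. Mortality counted after 24 hours; mean of three cups.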

Data set [8] has as its system resistant green rice leafhopper (collected at Nakagawara). Kind of data set: Test 3: Effect on Resistant Green Rice Leafhopper (collected at Nakagawara). The class given is in vivo, Nephotettix cincticeps Uhler (Green rice leafhopper). The note with it: Nephotettix cincticeps, 24 h, read-out: Mortality (%), Green Rice Leafhopper Collected at Nakagawara. The method in brief:
as §2

The test system of data set [9] is tobacco cutworm. Kind of data set: Test 2: Tobacco Cutworm Larva Dipping Test, mortality after 24 hours. It counts as in vivo. The note with it: 24 hours. The method in brief:
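Second- and fifth-instar larvae dipped 5 s in a water dilution of an emulsifiable concentrate at 100 or 20 ppm, blotted, then held on artificial diet at 25° C. Dead and living larvae counted after 24 hours; mortality averaged over three cups.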

Data set [10] relates to German cockroach. Kind of data set: Test 7: Effect on German Cockroach. The note with it: Blattella germanica, male adults, agonized and killed after 24 hours, read-out: Mortality (%); for mortality at 10 mg/m2: 10 mg/m^2; for mortality at 50 mg/m2: 50 mg/m^2. It counts as in vivo. The method in brief:
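Petri dish floors were treated with 50 or 10 mg/m2 of compound (diluted emulsifiable concentrate) and air-dried. Ten male adult German cockroaches per dish were held at 25° C. Agonized and dead insects were counted after 24 hours, averaging two dishes.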

Data set [11] in a line: Test 8: Fish Toxicity. The class given is in vivo. As to conditions: carp, water; concentration at which 1/2 of the test fishes were killed within 48 hours; read-out: Fish Toxicity, TLm48. As to the method:
A water tank having a width of 60 cm, a length of 30 cm and a height of 40 cm was filled with water, and 10 yearling carps having a body length of about 5 cm were set free in the tank and adapted to the environment in the tank. A test compound was applied so that the concentration in water was 10, 1 or 0.1 ppm. After 48 hours, the numbers of killed and living carps were counted and the influences on the fishes were examined.

Data set [12] has as its system plants of Solanacede. The note with it: Fenvalerate; general statement; cited from earlier work.
Setting [13] is: fifth-instar larvae, read-out: Motality (%), Fifth-Instar Larvae.
Where [14] appears, read: second-instar larvae, read-out: Motality (%), Second-Instar Larvae.

For “Pyrethrin [Comparative Compound (c), reference compound]”, the “Acute Toxicity at Oral Administration, LD-50” value in data set [1] was 340 mg/kg. In [2], the “Mortality (%)” value stood at 0%.
In general, LD50 refers to the dose at which mortality reaches 50%. A low value points to a more toxic substance. Take `CC(C)(COCc1cccc(Oc2ccccc2)c1)c1ccc(Cl)c(Cl)c1` [Compound 48, 3-Phenoxybenzyl 2-(3,4-dichlorophenyl)-2-methylpropyl ether]: the LD50 at 168 h in data set [3] was over 500 mg/kg. In addition, the mortality at 20 ppm is 80% in [4]; 100% in data set [6]; 100% in data set [7]; 100% in [8]; 60% in data set [9] (setting [13]); 70% in [9] (setting [14]). Further, the mortality at 100 ppm in [4] is 100%; in [5], over 95%; in data set [6] it was 100%; in data set [2], 100%; in [7] it was 100%; in data set [8], 100%. The mortality at 100 ppm in data set [9] (setting [13]) worked out at 70%; in data set [9] (setting [14]), 90%. Moreover, the mortality at 10 mg/m2 in data set [10] was 100%. In addition, the mortality at 50 mg/m2 in data set [10] amounted to 100%. In addition, the LC50 at 48 h in data set [11] is over 10 µg/mL.
Take `CC(C)(COCc1cccc(Oc2ccc(F)cc2)c1)c1ccc(Cl)cc1` [Compound 6, 3-(4-Fluorophenoxy)benzyl 2-(4-chlorophenyl)-2-methylpropyl ether]: the LD50 at 168 h in data set [3] was over 500 mg/kg. Besides, the mortality at 20 ppm in data set [4], in data set [6], in [7], in data set [8], in [9] (setting [13]) and in data set [9] (setting [14]) was 100% each time. The mortality at 100 ppm in data set [4] was 100%; in [5] it was over 95%; in [6] it was 100%; in data set [2], 100%; in data set [7] it was 100%; in [8], 100%. The mortality at 100 ppm in data set [9] (setting [13]) and in data set [9] (setting [14]) was 100% in each case. The mortality at 10 mg/m2 in data set [10] was 100%. Also, the mortality at 50 mg/m2 in data set [10] was 100%. In addition, in [11], the LC50 at 48 h is over 10 µg/mL.
Turning to `CC(C)C(C(=O)OC(C#N)c1cccc(Oc2ccccc2)c1)c1ccc(Cl)cc1` (stereo not drawn) [Fenvalerate], in data set [12], the “phyto-toxicity to plants of Solanacede” value was “observed”.
